Results taken from patent US20020156013A1, “Asthma associated factors as targets for treating atopic allergies including asthma and related disorders” (priority 1997, published 2002).
One block for each molecule: values may come before it.

How the values were obtained:
[1] = tested on: Elk (a target of the MAPK pathway); experiment: PathDetect signal transduction pathway reporting system (GAL4-Elk luciferase reporter) with activated M-Ras mutants; type: cell-based; conditions: HEK293 cells, GAL4-Elk fusion
From the text: In order to characterize the pathway stimulated by activated M-Ras, applicants tested the ability of activated mutants to up-regulate the mitogen-activated protein kinase (MAPK) pathway or the c-Jun N-terminal kinase (JNK) pathway using an in vitro signal transduction pathway reporting system (FIG. 11). This luciferase-based assay allows for indirect measurement of Elk (target of the MAPK pathway) or Jun (target of the JNK pathway) protein activation. Activated MEK1, which activates Elk, served as a positive control for the MAPK pathway whereas activated MEKK was used as a positive control for the JNK pathway because it activates Jun.
The results of this experiment are shown in FIG. 12 for the MAPK pathway. […] In addition, M-Ras-1, M-Ras-2 and M-Ras-3 mutants activated Elk, indicating M-Ras induced activation of the MAPK pathway.
To characterize the activation pathway triggered by activated M-Ras, the ability of the M-Ras mutants described in Example 8 to activate the mitogen-activated protein kinase (MAPK) pathway or the c-JUN N-terminal Kinase (JNK) pathway was tested using the PathDetect in vivo signal transduction pathway reporting system (Stratagene). […] As expected, significant luciferase activity was detected when cells expressed the GAL4-Elk fusion protein together with activated MEK-1. […]

TS2 cells [2] = experiment: Cytokine-induced proliferation of TS2 cells (tritiated thymidine); type: cell-based, murine
Protocol: TS2 cells were grown in DMEM medium supplemented with 10% fetal calf serum, 50 μM 2-mercaptoethanol, 0.55 mM L-arginine, 0.24 mM L-asparagine and 1.25 mM L-glutamine.
(§1) The murine T-cell line TS2 grows in response to IL-2 and IL-9 in vitro. […] Cells which were maintained in medium described in Example 1 plus IL-2, were washed once with phosphate-buffered saline and plated at 3000 cells per well in the presence of 200 U/ml IL-2 or 200 U/ml of IL-9. Cells were grown for three days in the presence of PD98959 (10 μM) and then pulsed for four hours with tritiated thymidine. The cells were then harvested onto glass fiber filters and analyzed by scintillation counting.
The data is shown as percent growth as compared to cytokine only.

BaF3 cells = experiment: Proliferation of BaF3 cells transfected with wild-type or constitutively active mutant M-Ras; type: cell-based, murine
Protocol: To assess the ability of M-Ras to be able to exert a constitutive activity on cellular proliferation and to abrogate the requirement of cytokines in a cytokine-dependent cell line, site directed mutagenesis was used to generate mutant M-Ras proteins to assess their activities. Alignment of M-Ras to the H- and K-Ras proteins permitted identification of potential residues that may result in constitutive activation of M-Ras. Two mutants were prepared at codon 22, substituting a Val or Lys for Gly while another mutant was prepared at codon 71 substituting a Lys for Glu. These substitutions had been previously shown to result in active Ras molecules (FIG. 8). […] Mutant Ras cDNA was then cloned into the NotI-XbaI cloning site of the mammalian expression vector pEF-BOS which contains a puromycin resistance gene for selection of transfected cells. These expression vectors were then transfected into the IL-3 dependent cell line BaF3 and it was assayed for cytokine-independent growth. BaF3 cells were transfected with the three mutant M-Ras vectors, the wild type M-Ras vector or an empty vector by electroporation using the Gene Pulsar II (Bio-Rad). The settings used were […], 74 ohms and 300 volts with 50 μg of sterile DNA. Pooled transfected cells were selected with puromycin (3 μg/ml) and M-Ras expression was determined by Northern blot. All constructs expressed equivalent amounts of exogenous M-Ras.
as §1, with “vitro. […] In addition, the MAPK inhibitor PD98059 has the ability to block M-Ras signaling as described in Example 10.” for “vitro.”, “Cells were grown for three days in the presence of PD98959 (10 μM) and then pulsed for four hours with tritiated thymidine.” left out
Cells were plated at 3000 cells/well in the presence or absence of IL-3 and 10 μm PD98059 and assessed for proliferation as described in Example 12. […]

p38 MAPK = p38 MAPK (Homo sapiens, UniProt Q16539); conditions: Lee et al., 1994; Gallagher et al., 1997; cited from earlier work
p38 MAPK, sequence (Q16539 whole entry): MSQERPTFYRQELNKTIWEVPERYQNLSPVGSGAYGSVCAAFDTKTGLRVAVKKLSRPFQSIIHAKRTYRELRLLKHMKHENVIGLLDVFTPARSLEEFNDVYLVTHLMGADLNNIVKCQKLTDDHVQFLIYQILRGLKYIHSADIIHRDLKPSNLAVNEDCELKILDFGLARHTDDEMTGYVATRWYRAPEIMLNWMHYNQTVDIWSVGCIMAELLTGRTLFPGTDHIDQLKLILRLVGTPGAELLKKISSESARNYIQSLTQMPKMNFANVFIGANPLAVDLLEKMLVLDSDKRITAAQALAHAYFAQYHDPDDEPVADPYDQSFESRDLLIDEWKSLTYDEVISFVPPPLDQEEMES

[3] = tested on: ERK1, 2 or 5 family or JNK family of MAPK; conditions: Lee et al., 1994; Gallagher et al., 1997; cited from earlier work
M-Ras [4] = experiment: M-Ras induction in mitogen stimulated splenocytes (RT-PCR); type: cell-based, DBA2 mouse; conditions: DBA2 splenocytes, 5 ug/ml concanavalin A, 10 μg/ml aminosterol, 24 hours
Protocol: Splenocytes from the DBA2 bronchial hyperresponsive mouse were treated with aminosterol compounds to test for their ability to block the induction of M-Ras in response to mitogens. This group of aminosterols was identified from the liver of the dogfish shark and as a class appear to be antiproliferative. This series of aminosterols was assayed for their ability to inhibit M-Ras expression and TH2 activity in mitogen stimulated splenocytes from the DBA2 mouse.
Splenocytes were isolated from naive DBA2 mice by aseptic removal of spleens from anesthetized mice. Spleens were then minced by sterilized scissors and tissue was passed through a sterilized #60 wire mesh sieve. Cells were resuspended in RPMI medium and washed twice in the same medium. Cells were then resuspended in lysis buffer (4.15 g NaCl, 0.5 g KHCO3, 0.019 g EDTA in 500 ml of dH2O) to lyse red blood cells. Cells were incubated at 37° C. for 5 minutes and resuspended in RPMI plus heat inactivated 10% fetal bovine serum. Cells were then spun down and resuspended in RPMI growth media (as above) plus 5 ug/ml of concanavalin A. Cell cultures were treated with 10 μg/ml of the aminosterol compounds for 24 hours and were then harvested for RNA isolation using the Trizol method described by the manufacturer (Gibco-BRL). […]

TS2 cells [5] = experiment: Proliferation of TS2 cells with lovastatin (3H-thymidine incorporation); type: cell-based, murine; conditions: Mus musculus, 72 h; IL-2 or IL-9 5 ng/ml, different concentrations of lovastatin, three days; maximal inhibition; read-out: inhibition of cellular proliferation of TS2 cells as compared to untreated cells
Protocol: To further test the role of M-Ras in IL-9 signaling, yet another IL-9 responsive cell line was treated with the farnesyl transferase inhibitor lovastatin to determine if the Ras pathway was utilized for proliferation. TS2 cells were washed three times and plated in 96-well plates at a density of 1,000 cells per well. IL-2 or IL-9 was added successively at a concentration of 5 ng/ml together with different concentrations of lovastatin as indicated. DMSO was included as the vehicle control. After three days, the rate of proliferation was determined by ^3H-thymidine incorporation ([…] per well) and percent of inhibition was obtained from the ratio between treated and untreated cells.

M-Ras [6] = experiment: M-Ras prenylation in transfected BW5147 cells (immunoprecipitation, SDS-PAGE migration); type: cell-based, murine; conditions: BW5147 cells with pEF-BOS-M-Ras, 4 mg/ml lovastatin, three days, versus untreated
Protocol: BW5147, a murine thyoma cell line that grows in the absence of any cytokine, was stably transfected with an expression vector containing wild type M-Ras cDNA (pEF-BOS-M-Ras). After two weeks of selection in 3 μg/ml of Puromycin, cells were treated for three days with different compounds previously reported to work as inhibitors of p21 Ras prenylation. Cells were then harvested and proteins were extracted and immunoprecipitated with a rabbit antibody (JAL4) specific for M-Ras. Immunoprecipitates were electrophoretically resolved by SDS-PAGE (18%) and transferred to PVDF membrane. Immunoblots were successively probed with JAL4 antibody (1:1500 dilution) to detect the expression and migratory pattern of M-Ras protein. The non-prenylated form of p21 Ras migrates slower than the fully processed form. […] In contrast, cells transfected with pEF-BOS-M-Ras overexpressed the M-Ras protein.

TS1-RA3 cells = experiment: IL-9 induced proliferation of TS1-RA3 cells (acid phosphatase assay); type: cell-based, murine; conditions: grown in IL-9, varying amounts of manumycin A, 4 days; maximal inhibition
Protocol: Ras molecules have been previously shown to function after prenlylation via farnesyl transferase and subsequent attachment to the inner cytoplasmic membrane. To test the role of M-Ras in IL-9 signaling, IL-9 responsive cells were treated with the farnesyl transferase inhibitor manumycin A in a proliferation assay to determine if the Ras pathway was utilized for proliferation. TS1-RA3 cells, which are a murine TH2 lymphocyte cell line expressing human IL-9 receptor by a transfected expression construct, were grown in the presence of IL-9 and in the absence or in varying amounts of manumycin A for 4 days.

luciferase induction by M-Ras-1, M-Ras-2 and M-Ras-3 mutants [1]: blocked
Structure (SMILES): COc1cccc(-c2cc(=O)c3ccccc3o2)c1N [PD98059]
growth of cells grown in IL-2 (TS2 cells [2]; 200 U/ml IL-2, inhibitor 10 μM, three days): no inhibitory activity
growth of cells grown in IL-9 (TS2 cells [2]; 200 U/ml IL-9, inhibitor 10 μM, three days): growth inhibited
proliferation of cells expressing the mutant M-Ras gene (BaF3 cells; BaF3, absence of IL-3, 10 μm PD98059): blocked
IL-3 induced cellular proliferation of M-Ras wild-type transfected cells (BaF3 cells; BaF3, with IL-3, 10 μm PD98059): no activity
proliferation of mutant M-Ras cells grown with IL-3 (cellular toxicity check) (BaF3 cells; BaF3, with IL-3, 10 μm PD98059): could proliferate

Structure (SMILES): Oc1ccc(-c2nc(-c3ccncc3)c(-c3ccc(F)cc3)[nH]2)cc1 [SB202190]
ability of TS2 cells to proliferate in response to IL-2 (TS2 cells [2]; IL-2, percent growth compared to cytokine only): not
ability of TS2 cells to proliferate in response to IL-9 (TS2 cells [2]; IL-9, percent growth compared to cytokine only): blocked
inhibition of p38 MAPK (p38 MAPK): specifically inhibit
inhibition of ERK1, 2 or 5 family or JNK family of MAPK [3]: not

Structure (SMILES): CC(C)[C@@H](CC[C@@H](C)[C@H]1CC[C@H]2[C@@H]3[C@H](O)C[C@H]4C[C@@H](NCCCNCCCCNCCCN)CC[C@]4(C)[C@H]3CC[C@]12C)OS(=O)(=O)O [compound 1436]
expression of M-Ras (M-Ras [4]): no effect

Structure (SMILES): CC[C@H](C)C(=O)O[C@H]1C[C@@H](C)C=C2C=C[C@H](C)[C@H](CC[C@@H]3C[C@@H](O)CC(=O)O3)[C@H]21 [lovastatin]
inhibition at 0.005 µg/mL (TS2 cells [5]): ≤ 95%
migration of M-Ras protein on SDS-PAGE (non-prenylated form migrates slower) (M-Ras [6]): migrated higher

Structure (SMILES): CCCC[C@@H](C)/C=C(C)/C=C(\C)C(=O)NC1=C[C@@](O)(/C=C/C=C/C=C/C(=O)NC2=C(O)CCC2=O)[C@@H]2O[C@@H]2C1=O [manumycin A]
inhibition of cellular proliferation of TS1-RA3 cells as compared to untreated cells (TS1-RA3 cells): up to 76%
